Assays:
Format in all cases: cell-based, human
pluripotent stem cells [1] = assay: DoE/ISPA of biologically active retinoids for HNF1β induction (DFE induction); settings: retinoid DoE; 13-cis and all trans stated to contribute negatively
Text: (§1) All DoE experimental designs were computer generated using D-optimal interaction designs in MODDE software (Sartorius Stedim Data Analytical Solutions, SSDAS). Perturbation matrixes were generated (96 independent experimental runs) on a Freedom Evol50 liquid handling robot (TECAN, CH). Each DoE differentiation experiment used a 3-day application of perturbation matrixes with daily media replacements. All cell culture, including manual preparatory expansion and seeding as well as any robotic manipulations were contained in a modular X-Vivo system (Biospherix, NY, USA) providing Process Analytical Technology (PAT) of the cell culture conditions (affording % N2, % O2, % CO2, and temperature control and monitoring at any point in the experimental process). End-point data collection was performed using an Open Array RT-QPCR method (QuantStudio, Life Technologies, 53 genes/sample/card). QuantStudio gene expression data were normalized within Expression Suite™ (Life Tech), standardized, and exported to MODDE. Mathematical modeling of the differentiation space was performed in MODDE using PLS maximizing the explained variance and subsequently gene-specific models were tuned by Q2 maximization. Fitted model optimized conditions for response maximization or minimization were extracted using the software predictive tools ‘optimizer’ and ‘dynamic profile’ analysis. Virtual experiments were performed in the known space covered by the experimental design, addressing pathway relative contributions to the desired parameters.
Samples were loaded onto a custom design Quant Studio Card using an OpenArray AccuFill System (Life Technologies 4471021) and ran on a QuantStudio 12k Flex Real-Time PCR System (Life Technologies 4471090). The QuantStudio Open Array analysis provided expression information of 53 chosen genes per open array configuration. […] Initial designs included genes responding to all major sub-lineage fates downstream of pluripotency, while the later design focused more on endodermal lineages with an emphasis on pancreatic fates. […]

pluripotent cultures [2] = assay: DoE/ISPA modeling of endodermal gene induction from pluripotency (3-day perturbation matrix, OpenArray RT-QPCR); settings: ISPA prediction; for factor contribution (FC) for FOXA2 expression / factor contribution (FC) for HNF1β expression / factor contribution (FC) for MNX1 expression: pluripotent cultures
Description: Pluripotent cultures were adapted to Essential 8 media (Gibco A15169-01) and grown on vitronectin (Gibco A14700) coated plates (Corning Inc. 3598). Differentiation experiments were seeded at 75,000 cells per cm^2 and maintained in E8 medium for 48 hours until cultures were approximately 90% confluent before initiating differentiation. All growth factors and small molecules were reconstituted according to supplier's recommendations and aliquots were stored at −80° C. for up to a year. Growth medium was changed daily and with the exception of the DE protocol the basal medium used in all differentiation experiments was CDM2 (Loh et al., 2014). The APS^Opt was composed of 250 nM LDN3189 (Sellekchem S2618), 50 ng/ml Activin A (Peprotech 120-14), 20 ng/ml bFGF (Gibco 13256029), 100 nM Sant1 (Sellekchem S7092). The HNF1β^Opt was supplemented with 250 nM LDN3189, 500 nM A8301 (Biogems 4463325), 12.6 ng/ml Wnt3a (R&D 5036WN/CF), 25 ng/ml bFGF, 250 nM PD0325 (Selleckchme S1036), 40 ng/ml SHH (Peprotech 100-45) and 2 uM retinoic acid (Sigma Aldrich R2625). DE was generated using conditions previously described (Rezania et al., 2014, D'Amour et al., 2005). The PDX1^Opt was composed of 500 nM A8301, 250 nM LDN3189, 100 nM Sant1, 250 nM PD0325, 2 uM retinoic acid and 1% B27 supplement (Gibco 12587) and with the exception of where it is stated differently in the text was used for 3 sequential days on differentiating cells. Endocrine push medium was supplemented with 100 nM gamma-secretase inhibitor XX (EMD Millipore 565789) and 500 nM A8301. Stomach organoids were generated using a modified protocol (McCracken et al., 2014). Briefly HNF1β^Opt cultures were incubated for three days with a stage 2 medium supplemented with 500 ng/ml Wnt3a, 500 ng/ml FGF4 (R&D 7460-F4), 250 nM LDN3189 and 2 uM retinoic acid (RA first day only). Cultures were passaged 1:6 with seeding occurring in a 1:4 Matrigel (Fisher Scientific 354230)/CDM2 mixture and incubated for 30 minutes at 37° C. before a three day application of stage 3 medium composed of 2 uM retinoic acid, 250 nM LDN3189 and 100 ng/ml EGF (R&D 236-EG). Cultures were then supplemented with a stage 4 medium supplemented with 100 ng/ml EGF for 23 days before organoids were recovered and fixed for sectioning.
as §1
RNA extractions for modeling analysis were performed using a MagMax-96 Total RNA Isolation Kit (Life Technologies AM1830) and performed according to manufacturer's protocol. […]

pluripotent stem cells [3] = assay: Immunostaining and high content imaging of DFE markers (conversion efficiency); settings: immunostaining of DFE markers, compared with HNF1β^Opt / RA
Description: Histological characterization occurred by treating cell cultures with 4% paraformaldehyde (EMD 30525-89-4) solution at ambient temperature for 15 minutes. Samples were then blocked and permeabilized using 0.1M Tris/HCl (Promega H5123) pH 7.5 supplemented with 0.5% blocking reagent (Perkin Elmer FP1012) and 0.1% TrintonX-100 (Fisher Scientific BP151) for 1 hour. All antibody solutions were diluted in 0.1M Tris/HCl (Promega H5123) pH 7.5 and primary antibodies were incubated over-night while secondary antibodies were incubated for an hour. All incubations occurred at ambient temperature. Cultures were treated with a 1:2 dilution of Vectashield mounting medium (Vector Laboratories H-1200).
To further validate the induction conditions for DFE markers, immunostaining was performed, followed by high content imaging to assess conversion efficiency.

[4] = test system: DFE-derived endocrine cultures; assay: Glucose stimulated insulin release assay (GSIS), C-peptide ELISA; settings: 30 mM KCl, 30 minute incubation, versus 2 mM glucose basal
Description: GSIS assays were performed by incubating cells in Krebs-Ringer buffer supplemented with 2 mM glucose for 30 minutes for determination of basal C-peptide levels. This was followed by changing reaction buffer to a Krebs Ringer buffer either supplemented with 20 mM glucose or 30 mM KCl for an additional 30 minute incubation. Buffer samples were collected and C-Peptide levels were quantified using ELISA (Mercodia 10-1141-01) according to manufacturer's protocol. Microfludic assays were performed as previously described (Adewola et al., 2010, Wang et al., 2012).

DFE culture = assay: Sequential DoE/ISPA modelling on DFE culture, maximizing SOX2, OSR1 or PDX1 expression; settings: ISPA; for factor contribution (FC) for PDX1 (pancreatic) activation: PDX1^Opt
Description: Since we observed that the DFE cultures were competent for both stomach and pancreas induction we next evaluated this bi-potential nature through a sequential DoE modelling experiment performed on the DFE culture.
Results from ISPA maximization of the expression of SOX2, OSR1 or PDX1 were compared (FIGS. 4A & B).
Pluripotent cultures were adapted to Essential 8 media (Gibco A15169-01) and grown on vitronectin (Gibco A14700) coated plates (Corning Inc. 3598). Differentiation experiments were seeded at 75,000 cells per cm^2 and maintained in E8 medium for 48 hours until cultures were approximately 90% confluent before initiating differentiation. All growth factors and small molecules were reconstituted according to supplier's recommendations and aliquots were stored at −80° C. for up to a year. Growth medium was changed daily and with the exception of the DE protocol the basal medium used in all differentiation experiments was CDM2 (Loh et al., 2014). The APS^Opt was composed of 250 nM LDN3189 (Sellekchem S2618), 50 ng/ml Activin A (Peprotech 120-14), 20 ng/ml bFGF (Gibco 13256029), 100 nM Sant1 (Sellekchem S7092). The HNF1β^Opt was supplemented with 250 nM LDN3189, 500 nM A8301 (Biogems 4463325), 12.6 ng/ml Wnt3a (R&D 5036WN/CF), 25 ng/ml bFGF, 250 nM PD0325 (Selleckchme S1036), 40 ng/ml SHH (Peprotech 100-45) and 2 uM retinoic acid (Sigma Aldrich R2625). […] The PDX1^Opt was composed of 500 nM A8301, 250 nM LDN3189, 100 nM Sant1, 250 nM PD0325, 2 uM retinoic acid and 1% B27 supplement (Gibco 12587) and with the exception of where it is stated differently in the text was used for 3 sequential days on differentiating cells.

pluripotent cultures [5] = assay: HD-DoE gastrulation modeling, normalized effector factor contributions for endodermal genes; settings: ISPA
Text: as §1, with “Virtual experiments were performed in the known space covered by the experimental design, addressing pathway relative contributions to the desired parameters.” left out
To better understand how the in vitro produced endodermal populations being studied are patterned we next performed a follow-up DoE-based gastrulation modeling experiment (FIG. 16A). ISPA optimizing for all the individual endoderm genes measured were then subjected to a cluster analysis using Seurat R package (FIG. 16B). […]
HD-DoE designs incorporating Activin A (AA), BMP4, NODAL, retinoic acid and respective inhibitors were used on pluripotent cultures and key endodermal genes were monitored (FIG. 16). Resulting data was imported into analysis software and computer models predicting optimal culture conditions for activating all genes monitored were clustered (FIG. 19B). […]

CC1=C(/C=C/C(C)=C/C=C/C(C)=C/C(=O)O)C(C)(C)CCC1=O [4-oxo-retinoic acid]
factor contribution (FC) to HNF1β induction (pluripotent stem cells [1]): 13.21

CC1=C(/C=C/C(C)=C/C=C/C(C)=C\C(=O)O)C(C)(C)CCC1 [13-cis retinoic acid]
factor contribution (FC) to HNF1β induction (pluripotent stem cells [1]): 24.1609

Cc1cccc(-c2nn(C(=S)Nc3ccccc3)cc2-c2ccnc3ccccc23)n1 [Alk5i, A8301]
factor contribution (FC) for FOXA2 expression (pluripotent cultures [2]): 8.88
factor contribution (FC) for HNF1β expression (pluripotent cultures [2]): 7.59
factor contribution (FC) for MNX1 expression (pluripotent cultures [2]): 18.98

c1ccc2c(-c3cnn4cc(-c5ccc(N6CCNCC6)cc5)cnc34)ccnc2c1 [BMPi, LDN193189]
factor contribution (FC) for FOXA2 expression (pluripotent cultures [2]): 25.3
factor contribution (FC) for HNF1β expression (pluripotent cultures [2]): 31.7
factor contribution (FC) for MNX1 expression (pluripotent cultures [2]): 30.5

CC1(C)CCC(C)(C)c2cc(C#Cc3ccc(C(=O)O)cc3)ccc21 [EC23]
effectiveness of DFE induction by alternative retinoic acid pathway agonists (pluripotent stem cells [3]): operates equivalently to RA

[Cl-].[K+] [KCl]
increase in detectable C-peptide levels [4]: 4 fold

O=C(NOC[C@H](O)CO)c1ccc(F)c(F)c1Nc1ccc(I)cc1F [PD0325901]
factor contribution (FC) for PDX1 (pancreatic) activation (DFE culture): 29.62

CC1=C(/C=C/C(C)=C/C=C/C(C)=C/C(=O)O)C(C)(C)CCC1 [RA, retinoic acid]
factor contribution (FC) to HNF1β induction (pluripotent stem cells [1]): 2.773
factor contribution (FC) for OSR1 (gastric) activation (DFE culture): 30.68
factor contribution (FC) for SOX2 expression (DFE culture): −28.59
factor contribution (FC) for PDX1 (pancreatic) activation (DFE culture): 31.38
factor contribution (FC) for FOXA2 expression (pluripotent cultures [2]): 24.8
factor contribution (FC) for HNF1β expression (pluripotent cultures [2]): 30.1
factor contribution (FC) for MNX1 expression (pluripotent cultures [2]): 22.7

SHH
factor contribution (FC) for SOX2 expression (DFE culture): 29.58

B1: Activin A (protein, UniProt P08476 311-426, looked up)
Inhibin beta A chain: GLECDGKVNICCKKQFFVSFKDIGWNDWIIAPSGYHANYCEGECPSHIAGTSGSSLSFHSTVINHYRMRGHSPFANLKSCCVPTKLRPMSMLYYDDGQNIIKKDIQNMIVEECGCS
modifications: Inhibin beta A chain
notes: TGFβ pathway agonist used as a Nodal mimic
normalized factor contribution for OSR1 activation (pluripotent cultures [5]): −1.0
normalized factor contribution for PAX9 activation (pluripotent cultures [5]): −0.85
normalized factor contribution for TBX1 activation (pluripotent cultures [5]): −0.59
contribution to activating retinoic acid/BMP inhibition-dependent endoderm genes (pluripotent cultures [2]; FOXA2, HNF1β, MNX1 etc.): no contribution
factor contribution (FC) to anterior primitive streak (APS) gene induction (pluripotent cultures [2]; maximal MESP1, EOMES, BRACHYURY/T, minimal EVX1): 18.85

B2: FGF4 (protein, UniProt P08620 31-206, looked up)
Fibroblast growth factor 4: APTAPNGTLEAELERRWESLVALSLARLPVAAQPKEAAVQSGAGDYLLGIKRLRRLYCNVGIGFHLQALPDGRIGGAHADTRDSLLELSPVERGVVSIFGVASRFFVAMSSKGKLYGSPFFTDECTFKEILLPNNYNAYESYKYPGMFIALSKNGKTKKGNRVSPTMKVTHFLPRL
notes: FGF signaling growth factor (R&D 7460-F4)
factor contribution (FC) for OSR1 (gastric) activation (DFE culture): 13.45
